Data as given in ChEMBL document CHEMBL5131543, “Studying Lipophilicity Trends of Phosphorus Compounds by 31P-NMR Spectroscopy: A Powerful Tool for the Design of P-Containing Drugs” (J Med Chem, 2022).

What was measured:
Type in all cases: physicochemical
[1] = […]-water partition coefficient, logP of compound by shake flask method based 31P-NMR analysis; details: octanol/water
[2] = Octanol-water partition coefficient, logP of compound at pH 1.3 by shake flask method based 31P-NMR analysis
[3] = Lipophilicity, logD of compound at pH 1.3 by shake flask method based 31P-NMR analysis; details: buffer
[4] = Basicity of hydrogen bond, pKHB of compound by IR spectroscopy
[5] = Octanol-water partition coefficient, logP of compound by shake flask method based 31P-NMR analysis
[6] = Lipophilicity, logD of compound at pH 3 by shake flask method based 31P-NMR analysis; details: buffer
[7] = Lipophilicity, logD of compound at pH 7.4 by shake flask method based 31P-NMR analysis; details: buffer

For `CCOP(=O)(OCC)Oc1ccc(OC)cc1`, which logP [1] is on record?
Its logP is 2.14.

Which logP [2] does the source give for `O=P(O)(O)C(O)(c1ccccc1)P(=O)(O)O` here?
Its logP is -1.87.

Which logD [3] does the source give for `CCCCCCCC(O)(P(=O)(O)O)P(=O)(O)O` here?
The logD was 0.6.

With `CCOP(=S)(OCC)Oc1ccccc1` as the compound, how does the logP [1] read?
Its logP is 3.34.

With `CCOP(=S)(OCC)Oc1ccc(OC)cc1` as the compound, how does the logP [1] read?
Its logP is 3.37.

For `O=P(O)(O)C(O)(c1ccc(F)cc1)P(=O)(O)O`, which logD [3] is on record?
Its logD is -1.57.

For `CCOP(=O)(OCC)SCC`, which logP [1] is on record?
The logP was 1.42.

And the pKHB [4]?
The pKHB was 2.377.

Which logP [5] does the source give for `CCOP(=O)(OCC)c1ccccc1` here?
The logP was 1.1.

For `O=P(O)(O)C(O)(c1cc(F)c(F)c(F)c1)P(=O)(O)O`, which logD [3] is on record?
The logD was -0.69.

With `CCOP(=S)(OCC)c1ccccc1` as the compound, how does the logP [5] read?
Its logP is 3.66.

With `CCOP(=S)(OCC)SCC` as the compound, how does the logP [1] read?
The logP was 3.38.

With `CP(C)(C)=O` as the compound, how does the logP [1] read?
The logP was -1.6.

What about the pKHB [4] of the same compound?
The pKHB was 3.444.

Which logP [1] does the source give for `CP(C)(C)=S` here?
Its logP is -0.23.

What about the pKHB [4] of the same compound?
The pKHB was 1.533.

For `CCNP(=O)(OCC)OCC`, which logP [1] is on record?
Its logP is 0.54.

Which logD [6] does the source give for `O=P(O)(O)C(O)(c1ccccc1F)P(=O)(O)O` here?
Its logD is -3.25.

What about the logD [3] of the same compound?
Its logD is -2.16.

With `O=P(CCCO)(CCCO)CCCO` as the compound, how does the logP [1] read?
Its logP is -2.49.

With `OCCCP(=[Se])(CCCO)CCCO` as the compound, how does the logP [1] read?
Its logP is -0.9.

What does the source list for `CP(C)(C)=[Se]`?
logP [1]: -0.02; pKHB [4]: 1.519

With `OCCCP(=S)(CCCO)CCCO` as the compound, how does the logP [1] read?
Its logP is -1.2.

For `CCCCCCCCCC(O)(P(=O)(O)O)P(=O)(O)O`, which logD [3] is on record?
Its logD is 1.72.

With `CCCCCCC(O)(P(=O)(O)O)P(=O)(O)O` as the compound, how does the logD [3] read?
The logD was -0.08.

Which logD [3] does the source give for `C[C@@H]1C[C@H]2[C@@H]3CCC4=CC(=O)C=C[C@]4(C)[C@@]3(F)[C@@H](O)C[C@]2(C)[C@@]1(O)C(=O)COP(=O)(O)O` [DEXAMETHASONE SODIUM PHOSPHATE] here?
Its logD is 1.24.

With `CCOP(=O)(OCC)Oc1ccc([N+](=O)[O-])cc1` [PARAOXON] as the compound, how does the logP [1] read?
The logP was 2.11.

Which logP [1] does the source give for `CCOP(=S)(OCC)Oc1ccc([N+](=O)[O-])cc1` [PARATHION] here?
The logP was 3.08.

With `CCOP(=O)(OCC)Oc1ccccc1` [PHOSPHORIC ACID DIETHYL ESTER PHENYL ESTER] as the compound, how does the logP [1] read?
Its logP is 2.07.

What does the source list for `CC(C)OC(=O)OCOP(=O)(CO[C@H](C)Cn1cnc2c(N)ncnc21)OCOC(=O)OC(C)C` [TENOFOVIR DISOPROXIL]?
logD [7]: 1.26; logD [3]: 1.26

For `CCOP(=O)(OCC)OCC` [TRIETHYL PHOSPHATE], which pKHB [4] is on record?
The pKHB was 2.574.

With `COP(=O)(OC)OC` [TRIMETHYL PHOSPHATE] as the compound, how does the logP [1] read?
Its logP is -0.4.
